In test [1] the target is T1, gp5-HT1B (Cavia porcellus, UniProt O08892). As to the kind of experiment: Guinea-pig iliac artery functional assay at gp5-HT1B (GPI). The class given is cell-based. More on the design: from tissue; host or cells: guinea-pig common iliac artery segments. The conditions noted are these: classified as antagonism, agonism or no effect at 10 μM, against 5-nonyloxytryptamine contraction; monohydrochloride salt. The procedure:
Protocol for Determination of Efficacy at gp5-HT1B Receptors in the Guinea-Pig Iliac Artery. (GPI)
Guinea-pig common iliac artery segments (1.0-1.5 mm long) from Dunkin-Harley guinea-pigs (250 g-500 g) were mounted under normalized tension in oxygenated (95% O2; 5% CO2) Krebs-Henseleit solution (NaCl, 118 mM; KCl, 4.7 mM; MgSO4, 1.2 mM; KH2PO4, 1.2 mM; NaHCO3, 25 mM; CaCl2, 2.5 mM; D-glucose, 11 mM; and with indomethacin, 10 μM). After 30 min equilibration, the vessels were precontracted with 5-HT (10 μM) and tested for endothelial integrity by administration of carbachol (10 μM), endothelium-intact vessels (relaxation ≧90% to carbachol) were used for the experiments. Concentration/contraction curves to cumulative addition of 5-nonyloxytryptamine (5-NOT; a 5-HT1B receptor-selective agonist) were constructed in 25 mM KCl Krebs-Henseleit solution (standard Krebs-Henseleit solution in which the KCl concentration was increased to 25 mM by equimolar substitution of NaCl). Vessels were incubated with putative antagonists for 30 min before construction of a concentration/contraction curve for 5-NOT. Contractile responses were expressed as a percentage of the tone induced by Krebs-Henseleit solution containing 90 mM KCl after substitution of an equivalent amount of NaCl with KCl in standard Krebs-Henseleit solution. Data were analysed using non-linear procedures by fitting to a logistic equation: E=(Rmax.[A]^nH)/EC50^nH+[A]^nH), where E is the contraction induced, [A] the concentration of the agonist, Rmax the maximal increase in tension induced, nH the slope function and EC50 the concentration of producing half the maximal contractile tone. Potency was assessed using the Gaddum equation: […] where [A] is the concentration of the putative antagonist and Ka its affinity constant at the 5-HT1B receptor. Compounds are classified as having antagonism, agonism or no effect at a dose concentration of 10 μM.

Another test has as its target T2, rat r5-HT1B receptors (Rattus norvegicus, UniProt P28564).
T2 construct: from tissue
Briefly: Binding affinity at rat r5-HT1B receptors, rat cerebral cortex membrane binding (RBA). The following applies: value in parentheses; monohydrochloride salt. As for the experimental part:
Binding Protocol for Determination of Affinity at rat r5-HT 1B Receptors (RBA)
This binding affinity protocol was performed according to standard conditions disclosed in Eur. J. Pharmacol. 1985, 118, 1-12.

Test [2] has as its target T1, gp5-HT1B. Briefly: Guinea-pig frontal cortex membrane binding at gp5-HT1B (GPF). More on the design: from tissue; host or cells: guinea-pig frontal cortex membranes. The following applies: monohydrochloride salt; for Kd: Kd from IC50 by Cheng & Prusoff, read-out: (GPF) Guinea-Pig Frontal Cortex membrane binding Affinity at gp5-HT1B Kd; for IC50: [3H]GR125743 displacement. As for the experimental part: Binding Protocol for Determination of Affinity in gp5-HY1B in Guinea-Pig Frontal Cortex Membranes. (GPF)
Guinea-pig frontal cortex membranes were resuspended in a buffer (50 mM Tris-HCl, 4 mM MgCl, 2.5 mM CaCl2, 1 mM EDTA and 120 mM NaCl pH 7.4) to a final concentration of 5-6 μg protein μl^−1. Receptor binding was initiated by the addition of membranes and carried out in a volume of 0.5 ml at 27° C. Non-specific binding was determined by pre-incubation for 15 min with 10 μM SB214461 (N-(3-(2-(dimethylamino)ethoxy)-4-methoxyphenyl)-2′-methyl-4′-(5-methyl-1,2,4-oxadiazol-3-yl)biphenyl-4-carboxamide, Eur. J. Pharmacol. 1997, 331, 169-174). The amount of binding in the presence or absence of a competing ligand was determined by incubation at 27° C. for 60 min with 0.6 nM [N-methyl ^3H] GR125743 (GE Life Science Products). Incubation was terminated by rapid vacuum filtration through GF/B glass fibre filters that had been presoaked in 3% polyethylenimine. Samples were washed 3 times with 1.5 ml ice-cold buffer (50 mM Tris-HCl, pH 7.4) and bound radioactivity determined by liquid scintillation counting after leaving the filters in contact with the scintillation fluid for at least 4 h before counting for 5 min in a liquid scintillation analyzer.
Specific binding was determined as B—BNS/(BTot—BNS) where B is the binding in the presence of a given competing ligand, BNS is the non-specific binding of radioligand (i.e. the binding in the presence of 10 μM SB214461), and BTot is the amount of binding of radioligand in the absence of a competing ligand. Data for specific binding as a function of the concentration of competing ligand were fitted to a single-site model to obtain a value for IC50. Kd values were derived from IC50 by the Cheng & Prusoff equation (Cheng Y, Prusoff W H (1973). Biochem Pharmacol 22, 3099-3108).

The target of the next test is human h5-HT1B receptor (Homo sapiens, UniProt P28222). Briefly: Binding affinity at human h5-HT1B receptors (HBA). The conditions noted are these: [3H]GR125743 displacement; Kd from IC50 by Cheng & Prusoff; monohydrochloride salt. As for the experimental part:
Binding Protocol for Determination of Binding Affinity at Human […] Receptors (HBA)
Membrane preparations (5 μg in a volume of 100 μl per sample) expressing the human h5-HT1B receptor were preincubated at 27° C. in buffer (50 mM Tris HCl, 10 mM MgCl2 and 1 mM EDTA; pH 7.4) with or without 10 μM SB214461 (N-(3-(2-(dimethylamino)ethoxy)-4-methoxyphenyl)-2′-methyl-4′-(5-methyl-1,2,4-oxadiazol-3-yl)biphenyl-4-carboxamide, Eur. J. Pharmacol. 1997, 331, 169-174) (to determine non-specific binding). Receptor binding was determined by incubation at 27° C. with 3.5 nM [N-methyl-^3H] GR125743 (GE Life Science Products) for 90 min. The incubations were terminated by rapid vacuum filtration through GF/B glass fibre filters that had been presoaked in 3% polyethylenimine. Samples were washed 3 times with 1.5 ml ice-cold buffer (50 mM Tris-HCl, pH 7.4) and bound radioactivity determined by liquid scintillation counting after leaving the filters in contact with the scintillation fluid (4 ml Quicksafe ‘A’, Zinsser, Maidenhead, UK) for at least 4 h before counting for 5 min in a liquid scintillation analyzer.
Specific binding was determined as B—BNS/(BTot—BNS) where B is the binding in the presence of a given competing ligand, BNS is the non-specific binding of radioligand (i.e. the binding in the presence of 10 μM SB214461), and BTot is the amount of binding of radioligand in the absence of a competing ligand. Data for specific binding as a function of the concentration of competing ligand were fitted to a single-site model to obtain a value for […]. Kd values were derived from IC50 by the Cheng & Prusoff equation (Cheng Y, Prusoff W H (1973). Biochem Pharmacol 22, 3099-3108).

By IC50 is commonly meant the concentration that inhibits the measured activity by half. As a reminder, the Kd is the equilibrium constant for the complex coming apart.

T2 sequence (P28564 whole entry): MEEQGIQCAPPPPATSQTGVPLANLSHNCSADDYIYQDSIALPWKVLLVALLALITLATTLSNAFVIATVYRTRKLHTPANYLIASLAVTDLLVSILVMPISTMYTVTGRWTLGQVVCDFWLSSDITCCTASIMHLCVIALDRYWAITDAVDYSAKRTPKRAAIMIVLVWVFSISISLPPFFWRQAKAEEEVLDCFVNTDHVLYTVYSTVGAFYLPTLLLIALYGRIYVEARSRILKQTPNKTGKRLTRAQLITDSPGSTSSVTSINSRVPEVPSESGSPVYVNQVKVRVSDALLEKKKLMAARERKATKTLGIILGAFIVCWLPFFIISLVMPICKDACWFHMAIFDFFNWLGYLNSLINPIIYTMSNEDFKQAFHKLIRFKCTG
Sequence of human h5-HT1B receptor (P28222 whole entry): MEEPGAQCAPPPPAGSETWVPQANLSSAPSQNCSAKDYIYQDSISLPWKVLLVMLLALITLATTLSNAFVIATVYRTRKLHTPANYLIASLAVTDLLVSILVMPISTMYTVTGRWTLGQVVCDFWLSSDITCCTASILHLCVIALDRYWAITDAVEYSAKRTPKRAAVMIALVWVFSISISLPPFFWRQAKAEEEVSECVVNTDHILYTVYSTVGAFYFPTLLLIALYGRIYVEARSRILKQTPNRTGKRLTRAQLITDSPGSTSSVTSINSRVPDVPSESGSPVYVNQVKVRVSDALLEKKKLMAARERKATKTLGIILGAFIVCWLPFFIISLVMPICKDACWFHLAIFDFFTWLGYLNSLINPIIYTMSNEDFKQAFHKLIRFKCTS
T1 sequence (O08892 whole entry): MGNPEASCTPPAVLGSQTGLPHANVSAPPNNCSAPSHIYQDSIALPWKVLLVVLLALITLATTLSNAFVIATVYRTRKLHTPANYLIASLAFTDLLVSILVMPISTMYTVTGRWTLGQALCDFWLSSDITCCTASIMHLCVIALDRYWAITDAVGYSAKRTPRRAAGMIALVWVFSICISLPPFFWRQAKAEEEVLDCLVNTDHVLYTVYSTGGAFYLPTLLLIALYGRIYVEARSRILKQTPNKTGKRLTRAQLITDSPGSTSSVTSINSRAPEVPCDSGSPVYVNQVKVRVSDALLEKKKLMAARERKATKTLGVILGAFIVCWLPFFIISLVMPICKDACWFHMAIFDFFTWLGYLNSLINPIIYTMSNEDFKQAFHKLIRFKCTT

Consider `COc1ccc(N2CCOC2=O)cc1N1CCN(C)CC1` [Example 13b, 3-(4-methoxy-3-(4-methylpiperazin-1-yl)phenyl)oxazolidin-2-one], for which, at gp5-HT1B [1], the “(GPI) Guinea-Pig Iliac Artery functional assay at gp5-HT1B” value is “Antagonist”.
On the same count and under the same terms, for `COc1ccc(N2CCOC2=O)cc1N1C[C@@H](C)N[C@@H](C)C1` [Example 13d, 3-(3-((3R,5S)-3,5-dimethylpiperazin-1-yl)-4-methoxyphenyl)oxazolidin-2-one] the value was “No effect”.
For `C[C@@H]1CN(c2cc(N3CCCC3=O)cc3c2OCC3)C[C@H](C)N1` [Example 26b, 1-(7-((3S,5R)-3,5-dimethylpiperazin-1-yl)-2,3-dihydrobenzofuran-5-yl)pyrrolidin-2-one], the IC50 on rat r5-HT1B receptors is 9600 nM.
For `COc1ccc(N2CCCC2=O)cc1N(C)CCN(C)C` [13f, 1-(3-((2-(dimethylamino)ethyl)(methyl)amino)-4-methoxyphenyl)pyrrolidin-2-one, reference compound], the “(GPI) Guinea-Pig Iliac Artery functional assay at gp5-HT1B” value at gp5-HT1B [1] is reported as “No effect”.
Take `COc1ccc(N2CCCC2=O)cc1N1CCN(C)CC1` [Example 5a, 1-(4-methoxy-3-(4-methylpiperazin-1-yl)phenyl)pyrrolidin-2-one]: on gp5-HT1B [2], the Kd was 15000 nM and the IC50 turned out to be 30000 nM. In addition, at gp5-HT1B [1], the “(GPI) Guinea-Pig Iliac Artery functional assay at gp5-HT1B” value is “Antagonist”.
As to `CN1CCN(c2cc(N3CCOC3=O)cc3ccoc23)CC1` [Example 47a, 3-(7-(4-methylpiperazin-1-yl)benzofuran-5-yl)oxazolidin-2-one], the Kd on human h5-HT1B receptor was 13500 nM. Moreover, at gp5-HT1B [2], the Kd is 225 nM and the IC50 is 450 nM. Moreover, on gp5-HT1B [1], the “(GPI) Guinea-Pig Iliac Artery functional assay at gp5-HT1B” value was “Antagonist”.
With `COc1ccc(N2CCCS2(=O)=O)cc1N1CCCN(C)CC1` [Example 18b, 2-(4-methoxy-3-(4-methyl-1,4-diazepan-1-yl)phenyl)-1,1-dioxoisothiazolidine], the IC50 at rat r5-HT1B receptors came out at 12000 nM.
On to `CN1CCN(c2cc(N3CCCC3=O)ccc2F)CC1` [Example 30, 1-(4-fluoro-3-(4-methylpiperazin-1-yl)phenyl)pyrollidin-2-one], for which, on gp5-HT1B [2], the Kd was 2000 nM and the IC50 is 4000 nM. The “(GPI) Guinea-Pig Iliac Artery functional assay at gp5-HT1B” value on gp5-HT1B [1] is given as “Antagonist”.
In the case of `COC(=O)N1CCN(c2cc(N3CCN(C)CC3)c3occc3c2)S1(=O)=O` [Example 49a, methyl 5-(7-(4-methylpiperazin-1-yl)benzofuran-5-yl)-1,1-dioxo-1,2,5-thiadiazolidine-2-carboxylate], at human h5-HT1B receptor, the Kd stood at 1800 nM. For the same molecule, on gp5-HT1B [2], the Kd was 230 nM and the IC50 came out at 460 nM. For the same molecule, the “(GPI) Guinea-Pig Iliac Artery functional assay at gp5-HT1B” value at gp5-HT1B [1] was “Antagonist”.
As for `COc1ccc(N2CCCC2=O)cc1N1CCC(N(C)C)CC1` [13e, 1-(3-(4-(dimethylamino)piperidin-1-yl)-4-methoxyphenyl)pyrrolidin-2-one, reference compound], the “(GPI) Guinea-Pig Iliac Artery functional assay at gp5-HT1B” value at gp5-HT1B [1] is on record as “Antagonist”.
Same read-out and setting: the value for `COc1ccc(N2CCCC2=O)cc1N1C[C@@H](C)N[C@@H](C)C1` [Example 13a, 1-(3-((3R,5S)-3,5-dimethylpiperazin-1-yl)-4-methoxyphenyl)pyrrolidin-2-one] was “Antagonist”.
As for `CN1CCN(c2cc(N3CCCC3=O)cc3ccoc23)CC1` [Example 45, 1-(7-(4-methylpiperazin-1-yl)benzofuran-5-yl)pyrrolidin-2-one], the Kd is 4500 nM at human h5-HT1B receptor and 200 nM at gp5-HT1B [2]. For the same molecule, on gp5-HT1B [2], the IC50 turned out to be 400 nM. The “(GPI) Guinea-Pig Iliac Artery functional assay at gp5-HT1B” value on gp5-HT1B [1] is “Antagonist”.
In the case of `CN1CCN(c2cc(N3CCNS3(=O)=O)cc3ccoc23)CC1` [Example 50a, 2-(7-(4-methylpiperazin-1-yl)benzofuran-5-yl)-1,1-dioxo-1,2,5-thiadiazolidine], the IC50 on rat r5-HT1B receptors is 860 nM. For the same molecule, on gp5-HT1B [2], the Kd was 700 nM and the IC50 is 1400 nM. Besides, on gp5-HT1B [1], the “(GPI) Guinea-Pig Iliac Artery functional assay at gp5-HT1B” value is reported as “Antagonist”.
As for `COc1ccc(N2CCCC2=O)cc1N1CCCN(C)CC1` [Example 13c, 1-(4-methoxy-3-(4-methyl-1,4-diazepan-1-yl)phenyl)pyrrolidin-2-one], at gp5-HT1B [1], the “(GPI) Guinea-Pig Iliac Artery functional assay at gp5-HT1B” value is given as “Antagonist”.

The record behind these values is US20130053372A1, “5-HT RECEPTOR MODULATORS” (Cambridge Enterprise Limited, priority 2010, published 2013).
